{
  "source": "patent US20220168301A1",
  "about": "“METHODS FOR TREATING SYMPTOMATIC ORTHOSTATIC HYPOTENSION” (Cerecor Inc, priority 2019, published 2022)",
  "key": {"healthy subjects": {"tested_on": "healthy subjects", "assay": "24-hour ambulatory blood pressure monitoring (ABPM), 7-day once-daily dosing study in healthy subjects", "type": "in vivo, human", "experimental": "The effects of CERC-301 were assessed in a randomized, double-blind, placebo-controlled, parallel-group, three-part safety, pharmacokinetic, and pharmacodynamic study in healthy human subjects.\nOne of the primary objective of the study was to investigative the dose-response relationship between CERC-301 and pharmacodynamic (PD) effects on blood pressure [BP] in healthy subjects. Secondary objectives included the investigation of the safety and tolerability of CERC-301 over 7 days of once-daily administration and the investigation of a single dose and 7-day repeated dose pharmacokinetic (PK) profiles of CERC-301, and to explore sub-group (age or gender) effects on other safety parameters, such as adverse events (AEs).\nThe study was a randomized, double-blind, placebo-controlled parallel-group, three-part, repeated dose in-patient study investigating the safety, tolerability, PK, and PD of CERC-301 in healthy subjects.\n(§1) Part 1: After the screening period, healthy, young male and female subjects were randomly assigned to dose groups as shown in Table 1. Randomized subjects participated in a time-matched baseline BP monitoring day (Day −1), once-daily dosing with study drug during which safety, PK, and PD assessments were performed on Days 1-7, discharge on Day 8, a follow-up period for PK and safety on Days 9-11, and end-of-study visit on Day 16. Each parallel dose group was balanced for gender (approximately equal number of males and females in each group).\nas §1, with “2:” for “1:”, “young and intermediate age” for “young”, “2.” for “1.”\nPart 3: After the screening period, healthy, young and elderly male and female subjects were randomly assigned to dose groups as shown in Table 3.\nas §1, with “Randomized” for “Part 1: After the screening period, healthy, young male and female subjects were randomly assigned to dose groups as shown in Table 1. Randomized”\nSubjects received 8, 12, 16 or 20 mg CERC-301 or matching placebo once-daily for 7 days.\nPD endpoints included the following […]: • 24-hour Ambulatory Blood Pressure Monitoring (ABPM) • Observed values and time matched change from baseline (pre-dose) of 24-hour ABPM • Mean 24 hours, Sleep and Awake systolic and diastolic BPs. • Mean Arterial Pressure (MAP), pulse pressure, and heart rate. • Observed values and change from baseline of sub-scale scores and Total Mood Disturbance (TMD) scores from Profiles of Mood States (POMS)"}, "[1]": {"conditions": "rats, cited from earlier work"}, "[2]": {"tested_on": "patients with symptomatic nOH associated with Parkinson's disease", "assay": "Safety and tolerability of single doses in patients with nOH associated with Parkinson's disease", "type": "in vivo, human", "experimental": "This study was designed as a randomized, double-blind, placebo-controlled trial in order to distinguish effects of active treatment in an efficient and unbiased manner. As CERC-301 had not previously been tested in subjects with symptomatic OH, a single escalating dose study design was used to ensure safety of the study participants.\nSubjects were dosed on five separate occasions, approximately 7-10 days apart, with one of four single escalating doses of CERC-301 or placebo and underwent an orthostatic challenge test to assess the safety, tolerability, effect on blood pressure, and PK. Subjects also completed a symptomatic assessment following the orthostatic challenge. Subjects were enrolled and randomized based on the dosing schedule in Table 4:\nAEs were monitored and the following information recorded: • Verbatim complaint • Whether the event was treatment-emergent (TEAE) • Whether event was serious (SAE) • Date of onset • Severity of event • Relationship of event to study drug • Action taken regarding study drug due to the event • Clinical outcome of event (resolved or ongoing) • If resolved, provide date of resolution\nThe following vital signs were measured during the study: • Blood pressure (systolic and diastolic [mm Hg]) • Heart rate (beats per minute [bpm]) • Oral body temperature (°C)\nTwo analysis sets were used. […] The SAF consists of all randomized subjects who receive at least one dose of study medication. […] The PKAS consists of all subjects from the SAF for whom sufficient plasma concentration data are available to facilitate the calculation of at least one PK parameter.\nAll safety and tolerability data are summarized using descriptive statistics. They are listed and summarized in tabular and/or graphical form. […] Descriptive statistics for laboratory values and their change or shift from baseline for each dose group are provided for each scheduled time of collection. Descriptive statistics for vital signs and their change from baseline for each dose group are provided for each scheduled time of collection. The placebo subjects are combined into a single placebo group for summary presentations."}, "[3]": {"tested_on": "patients with moderate Parkinson's disease", "conditions": "single oral dose 7 mg; cited from earlier work"}, "[4]": {"conditions": "monkeys, cited from earlier work"}, "[5]": {"conditions": "20 mg, 24 hours postdose, after 7 days of dosing"}, "[6]": {"conditions": "whole study, active and placebo not separated"}},
  "note": "Where two headings read alike, the source gives them in different places.",
  "data": [
    {"smiles": "Cc1ccc(COC(=O)N2CC[C@H](CNc3ncccn3)[C@H](F)C2)cc1", "note": "[CERC-301]", "values": [
      {"measurement": "Average nighttime SBP increase", "setting": "healthy subjects; 16 mg, Day 7", "result": 2, "unit": "mm Hg"},
      {"measurement": "Mean hourly average DBP change from baseline", "setting": "healthy subjects; [5]", "result": "approximately 10 mm Hg"},
      {"measurement": "Mean hourly average SBP change from baseline", "setting": "healthy subjects; [5]", "result": "approximately 14 mm Hg"},
      {"measurement": "Maximum average hourly daytime ambulatory DBP", "setting": "healthy subjects; 20 mg, Day 1", "result": "approximately 15 mm Hg"},
      {"measurement": "Maximum average hourly daytime ambulatory SBP", "setting": "healthy subjects; 20 mg, Day 1", "result": "approximately 16 mm Hg"},
      {"measurement": "Maximum average hourly daytime ambulatory DBP", "setting": "healthy subjects; 20 mg, Day 4", "result": "approximately 15 mm Hg"},
      {"measurement": "Maximum average hourly daytime ambulatory SBP", "setting": "healthy subjects; 20 mg, Day 4", "result": "~21", "unit": "mm Hg"},
      {"measurement": "Maximum average hourly daytime ambulatory DBP", "setting": "healthy subjects; 20 mg, Day 7", "result": "~19", "unit": "mm Hg"},
      {"measurement": "Maximum average hourly daytime ambulatory SBP", "setting": "healthy subjects; 20 mg, Day 7", "result": "~24", "unit": "mm Hg"},
      {"measurement": "Excretion", "setting": "[1]", "result": "excreted exclusively as metabolites via both the biliary and renal routes"},
      {"measurement": "Metabolism", "setting": "[1]", "result": "highly metabolized via multiple cytochrome P450 (CYP450) enzymes"},
      {"measurement": "Absorption", "setting": "[1]; oral administration", "result": "rapidly absorbed after oral administration"},
      {"measurement": "Safety and tolerability", "setting": "[2]; single doses of 8, 12, 16 and 20 mg", "result": "safe and well tolerated"},
      {"measurement": "Signals of increased heart rate or supine hypertension during the recumbent phase of the OST, active versus placebo", "setting": "[2]; single doses of 8 to 20 mg", "result": "No signals of increased heart rate or, supine hypertension"},
      {"measurement": "SAEs", "setting": "[2]; whole study", "result": "No SAEs were reported"},
      {"measurement": "AE reported: blurred vision", "setting": "[2]; [6]", "result": 14.3, "unit": "%"},
      {"measurement": "AE reported: dizziness", "setting": "[2]; [6]", "result": 7.1, "unit": "%"},
      {"measurement": "AE reported: fall", "setting": "[2]; [6]", "result": 14.3, "unit": "%"},
      {"measurement": "AE reported: hypoaesthesia", "setting": "[2]; [6]", "result": 7.1, "unit": "%"},
      {"measurement": "AE reported: hypotension", "setting": "[2]; [6]", "result": 7.1, "unit": "%"},
      {"measurement": "AE reported: memory impairment", "setting": "[2]; [6]", "result": 7.1, "unit": "%"},
      {"measurement": "AE reported: nasal congestion", "setting": "[2]; [6]", "result": 7.1, "unit": "%"},
      {"measurement": "AE reported: on/off phenomenon", "setting": "[2]; [6]", "result": 7.1, "unit": "%"},
      {"measurement": "AE reported: somnolence", "setting": "[2]; [6]", "result": 7.1, "unit": "%"},
      {"measurement": "AE reported: squamous cell carcinoma", "setting": "[2]; [6]", "result": 7.1, "unit": "%"},
      {"measurement": "Plasma concentration relative to target", "setting": "[3]", "result": "> 400", "unit": "nM"},
      {"measurement": "Systolic and diastolic blood pressure relative to placebo", "setting": "[3]", "result": "increases in systolic and diastolic blood pressure relative to placebo"},
      {"measurement": "Tolerability", "setting": "[3]", "result": "generally well tolerated"},
      {"measurement": "Excretion", "setting": "[4]", "result": "excreted exclusively as metabolites via both the biliary and renal routes"},
      {"measurement": "Metabolism", "setting": "[4]", "result": "highly metabolized via multiple cytochrome P450 (CYP450) enzymes"},
      {"measurement": "Absorption", "setting": "[4]; oral administration", "result": "rapidly absorbed after oral administration"}
    ]}
  ]
}
